How the values of series [1] were obtained: 10 mg of molecule A are added per 1 ml of aqueous solution.
The suspensions are stirred at 25° C. for 24 hours and are then centrifuged. The amount of molecule A in the supernatant is determined by HPLC and the pH of the supernatant is checked.
The apparent solubility of molecule A in the various oils, surfactants, cosurfactants, DMSO and glycofurol was also determined. Small amounts of molecule A are added to 1 g of each vehicle. Dissolution is carried out by ultrasound treatment at 25° C. Dissolution is confirmed visually and by optical microscopy. The solubility is estimated to within about 1 mg.

Series [2] can be described thus: Stability of molecule A in human duodenal liquid. The settings on record: FIG. 5. Format: in vitro ADME. As to the method: For each stability test, the necessary volume of a sample of human duodenal liquid frozen immediately after withdrawal is defrosted. Centrifuging at 1000 g for 15 min removes the substances resembling mucus. The pH of the supernatant is adjusted to 6.40 by addition of MES buffer (1250 mM in PBS-CMF), a value similar to the mean value of the pH of the fresh duodenal liquid.
Molecule A is dissolved in DMSO and either diluted directly in HESS/HEPES buffer (control) or prepared in the formulations before dilution in HBSS/HEPES in order to obtain a microemulsion. The final concentration in both cases is 10^−4M.
The formulations, preheated to 37° C., are added to the duodenal liquid, maintained at 37° C., in a 1/1 (v/v) ratio and are immediately mixed, in order for the final concentration of molecule A to be 5×10^−5M.
At T=0 (immediately after mixing) and at T=5, 10, 15, 30, 60, 90 and 120 minutes, […] samples of each preparation are withdrawn and mixed with the same volume of acetone at 4° C. to halt the enzymatic reaction. The samples were subsequently centrifuged (1000 g for 5 min) and the supernatant is tested by a validated LC/MS/MS method.

For series [3] the following is noted: from a suspension.
Series [4] has as its system Caco-2/TC7 clone cells.
Description: (§1) The Caco-2 strains used in the tests are Caco-2/TC7 clone cells.
(§2) In order to evaluate the scale of permeability of molecule A dissolved in DMSO as a function of the concentration, two solutions are prepared. The first, to which molecule A labelled with ^14C will be added, is 4.3×10^−2M; the second, to which ^14C-mannitol will be added, is 5×10^−2M.
(§3) These DMSO solutions are subsequently diluted in a 25 mM HBSS/HEPES buffer (pH 7.4) to which 0.4 μCi/ml of ^14C-mannitol or 0.4 μCi/ml of molecule A labelled with ^14C has been added (corresponding to 7 μM), so as to obtain final concentrations of molecule A of 7, 10, 50 or 100 mM.
(§4) The final concentration of DMSO in each donor solution is adjusted to 0.5%.
(§5) Donor solutions comprising 0.5% DMSO but comprising no compound are used as controls.
(§6) To analyse the role of P-glycoprotein in the mechanism of the transport of molecule A, donor solutions comprising 10 mM of molecule A and 100 mM of verapamil, nicardipine or progesterone are prepared and the permeability of molecule A is evaluated and compared with that obtained without the P-glycoprotein modulator.
(§7) To study the effects of glycofurol and of macrogol 300 on the permeability of molecule A: • Molecule A is dissolved in glycofurol in order to obtain 4.3×10^−3M or 5×10^−3M solutions. These are subsequently diluted in the HBSS/HEPES buffer to which 0.4 μCi/ml of ^14C-mannitol or 0.4 μCi/ml of molecule A labelled with ^14C has been added (see above), in order to obtain donor solutions for which the final concentration of molecule A is 50 μM and the final content of glycofurol is 1%. • Molecule A is dissolved in macrogol 300 in order to obtain 0.3×10^−3M or 10^−3M solutions.
(§8) Before any formulation, molecule A is dissolved in DMSO or glycofurol in order to obtain, in each solvent, solutions with concentrations of 4.3×10^−3M or 5×10^−3M. 40 μCi/ml of molecule A labelled with ^14C are added to the 4.3×10^−3M solutions, so that the theoretical concentration of molecule A is 5×10^−3M. 40 μCi/ml of ^14C-mannitol are added to the 5×10^−3M solutions.
(§9) Each of the solutions thus obtained is subsequently diluted in the mixtures under consideration of lipid excipients and of surfactants and, if appropriate, of cosurfactants, giving formulations comprising the solvent (DMSO or glycofurol) at 10% and molecule A at 5×10^−4M.
(§10) These formulations are diluted in 25 mM HBSS/HEPES buffer to give the donor solutions, the final concentration of molecule A of which is 5×10^−5M, which comprise 0.4 μCi/ml of molecule A labelled with 14C or else 0.4 μCi/ml of 14C-mannitol, and the proportion of lipid excipient of which is less than 1%. […]
A short description of the next series: in vitro. The note with it: human, Caco-2, pH 7.4.
The test system of series [5] is Caco-2/TC7 clone cells. Briefly: Transport (apparent permeability AB/BA) through Caco-2 cell monolayers. The note with it: solvents used to prepare the formulations (FIG. 3). (Caco-2 monolayers are a common model of the intestinal barrier.)
Description: as §1, §2, §3, §4, §5, §6, §7, §8, §9, §10

Broadly, the solubility is the concentration that dissolves in the medium under given conditions. High values mean much dissolved substance, low ones little dissolved substance. Broadly, the Papp B→A is the apparent permeability from the basolateral to the apical side of a cell layer.

Values after ≈ are worked out from the molar mass of the structure shown. Where two headings read alike, the source gives them in different places.

Description for in vitro: as §1, §2, §3, §4, §5, §6, §7, §8, §9, §10

In the case of `CCOC(=O)[C@H](CNC(=O)c1ccc(CCC(=O)NC2=NCCCN2)cc1)NS(=O)(=O)c1cccc2ccccc12` [molecule A, ethyl ester of (2S)-2-(naphthyl-1-sulphonylamino)-3-(4-(2-(1,4,5,6-tetrahydropyrimidin-2-ylcarbamoyl)ethyl)-benzoylamino)propionic acid], the solubility in series [1] (aqueous medium at physiological pH of the intestines) came out at 400 µg/mL (≈ 0.69 mM); in series [1] (in glycofurol) it was 6000 µg/mL (≈ 10.4 mM); in series [1] (in macrogol 300) it was 2000 µg/mL (≈ 3.45 mM). Besides, the “stability in human duodenal liquid (in words)” value in series [2] is reported as “unstable”. The absolute bioavailability result in series [3] is “less than 1%”. Also, in series [3], the “absorption of the active principle orally” value is “less than 1%”.

For `O=C(CCCOc1ccc(C[C@H](NC(=O)OCc2ccccc2)C(=O)O)cc1)NC1=NCCCN1` [molecule B, (2S)-2-benzyloxycarbonylamino-3-(4-(3-(1,4,5,6-tetrahydropyrimidin-2-ylcarbamoyl)propyloxy)phenyl)-propionic acid], the “efflux by P-glycoprotein (in words)” value in the series on Caco-2/TC7 clone cells [4] (Caco-2) was “undergoes efflux by P-glycoprotein”. Also, the “increase in the transport in the AB direction by a factor, with respect to 0.5% DMSO” value in the series with Caco-2/TC7 clone cells [4] (human, Caco-2, 120 min, pH 7.4) is on record as 5.9. The same compound displayed a Papp B→A at 120 min in the series “in vitro” of 2.1 ×10⁻⁶ cm/s.

Regarding glycofurol, the “effect of the solvent on the Papp values of molecule A” value in the series on Caco-2/TC7 clone cells [5] was “no effect”.

Source of the values: patent US20080193519A1, “Galenic Applications of Self-Emulsifying Mixtures of Lipidic Excipients” (Aventis Pharma S.A., priority 2004, published 2008).
